Test results: patent US20100168033A1, “UNACYLATED GHRELIN AS THERAPEUTIC AGENT IN THE TREATMENT OF METABOLIC DISORDERS” (ALIZE PHARMA SAS, priority 2007, published 2010)
Read-outs that look alike come from different tables or passages of the source. Non-standard residues stand in square brackets, D forms with d. No end group written: not given here.

Columns and labels:
HIT-T15 β-cells [1] = type: cell-based
Procedure: MTT experiments were also performed in hamster HIT-T15 β-cells, to test the survival effect of UAG (1-28) or its fragments UAG (1-14), UAG (1-18), UAG (1-5) and UAG (17-28) in serum deprived medium, either alone or with IFN-γ/TNF-α/IL-1β. As for the experiments performed on INS-1E β-cells, the peptides were tested at increasing concentrations, ranging from 0.1 nM to 100 nM.
The survival effect of UAG (6-13), UAG (8-13), UAG (8-12), UAG (8-11), UAG (9-12) and UAG (9-11) was assessed in cytokine-treated HIT-T15 β-cells.
The protective effects of peptides UAG (8-13) and UAG (8-12) were found similar to those of UAG (1-14) and UAG (1-18) A peptide made of the inverse sequence of UAG (1-14) and named UAG (14-1), was used as negative control for these experiments (FIG. 5A). […] These effects were however lower than those of UAG (6-13) (FIG. 5B).
UAG fragments with alanine (Ala) substitutions at different amino acid positions (6 to 13) were tested with regards to their survival effects in HIT-T15 hamster β-cells. The cells were cultured in serum deprived medium, either alone or with IFN-γ/TNF-α/IL-1β. The peptides were tested at the concentrations of 1 nM to 100 nM. […] Under treatment with cytokines, where cell survival was reduced by ≈18% with respect to serum starved conditions, all Ala substitutions, except those at positions 10 and 11, completely reversed cell death and brought the survival rate to levels that were even higher than those under serum-free conditions, at both 1 nM and 100 nM concentrations. These effects, were similar to those elicited by the original peptide UAG (6-13) (FIG. 11B).
Particularly, the best effect was exerted by Gly 6-UAG (6-13), whereas the lowest was seen using AcSer 6-UAG (6-13), AcSer 6-(D)Pro 7-UAG (6-13) (FIG. 12B).
(§1) Cell culture—Hamster HIT-T15 insulin-secreting β-cells were obtained and cultured as described (Refs. 14, 4). INS-1E rat β-cells were kindly provided by Prof. Claes B. Wollheim (University Medical Center, Geneva, Switzerland) and cultured as described (Refs. 14, 4). Cell culture reagents were from Invitrogen (Milano, Italy). Cytokines were from Biosource (Invitrogen, Italy).
(§2) Cell survival assay—Cell survival was assessed by 3-[4,5-dimethylthiazol-2-yl]-2,5 diphenyltetrazolium bromide (MTT) as described previously (Ref. 4). Cells were seeded on 96-well plates at a density of 5×10^3 cells/well. After treatments, cells were incubated with 1 mg/ml MTT for ≈1 h. The medium was aspirated, and the formazan product solubilized with 100 μl DMSO. Viability was assessed by spectrophotometry at 570 nm absorbance using a 96-well plate reader.

HIT-T15 β-cells [2] = test: Apoptosis in cytokine-treated HIT-T15 β-cells; type: cell-based, hamster; conditions: 24 h serum-free medium with IFN-γ/TNF-α/IL-1β; peptides 1, 10, 100 nM
Procedure: HIT-T15 β-cells were cultured for 24 h in serum-free medium, either alone or with IFN-γ/TNF-α/IL-1β. In both cell lines, apoptosis increased under cytokine treatment, with respect to serum starvation alone. […] UAG (14-1), the inverse sequence of UAG (1-14), was used as negative control, whereas UAG (1-28), was used as positive control in each experiment.

human pancreatic islets = test: MTT cell survival assay in human pancreatic islets; type: cell-based; conditions: 1 nM to 100 nM
Procedure: The survival effect of UAG (1-14), UAG (1-18), UAG (1-5) and UAG (17-28), with respect to that of full length UAG (1-28), was assessed in human pancreatic islets by MTT. The peptides were tested in islet cells cultured in serum deprived medium, either alone or with IFN-γ/TNF-α/IL-1β (5 ng/ml each).
Human islet isolation—Human islets were obtained from pancreases of multiorgan donors as described (Ref. 4). Islet preparations with purity >70%, not suitable for transplantation, were provided by European Consortium for Islet Transplantation (ECIT) “Islets for Research Distribution Program,” Transplant Unit, Scientific Institute San Raffaele, Vita-Salute University, Milan. Islets (10,000) were cultured in CMRL (Invitrogen) with 10% FBS.
as §2

INS-1E β-cells = test: MTT cell survival assay in INS-1E β-cells; type: cell-based, rat; conditions: peptides 0.1 nM to 100 nM
Procedure: The peptides were tested at increasing concentrations, ranging from 0.1 nM to 100 nM.
as §1, §2

[3] = test system: UAG receptor on INS-1E pancreatic β-cells; test: [125I-Tyr4]-UAG competition binding, INS-1E membranes; design: species or system rat; conditions: INS-1E cells
Procedure: (§3) The ability of the fragment UAG (6-13) to compete in a concentration-dependent manner with [^125I-Tyr^4]-UAG for HIT-T15 (FIG. 10A) and INS-1E (FIG. 10B) binding sites was assayed. As shown in FIGS. 10A and 10B, unlabelled UAG (1-28) and UAG (6-13) competed with a similar efficacy and in a concentration-dependent fashion with [^125I-Tyr^4]-UAG for such binding sites in both cell lines.
(§4) Binding assay—Membranes from hamster HIT-T15 and rat INS-1E to pancreatic β-cells were prepared and assayed for the presence of [^125I-Tyr^4]-UAG binding. The ability of UAG fragments to compete with the radioligand for such binding sites has been evaluated as previously described (Ref. 4). Data are presented as mean±S.E.M. of three independent experiments.

[4] = test system: UAG receptor on HIT-T15 pancreatic β-cells; test: [125I-Tyr4]-UAG competition binding, HIT-T15 membranes; design: species or system hamster; conditions: HIT-T15 cells
Procedure: as §3, §4

[5] = serum deprived medium with IFN-γ/TNF-α/IL-1β
[6] = serum deprived medium with IFN-γ/TNF-α/IL-1β (5 ng/ml each)

Ac-Ser-Pro-Glu-His-Gln-Arg-Val-Gln-NH2 (Ac-SPEHQRVQ-NH2; listed as Homo sapiens) [AcSer 6-UAG (6-13)]
cell survival (MTT) (HIT-T15 β-cells [1]; [5]): lowest

Ac-Ser-pro-Glu-His-Gln-Arg-Val-Gln-NH2 (Ac-S[dP]EHQRVQ-NH2; listed as Homo sapiens) [AcSer 6-(D)Pro 7-UAG (6-13)]
cell survival (MTT) (HIT-T15 β-cells [1]; [5]): lowest

EHQRVQ [UAG (8-13)]
cytokine-induced apoptosis (HIT-T15 β-cells [2]): significantly inhibited apoptosis at 10 and 100 nM

ESKKPPAKLQPR [UAG (17-28)]
cell survival (MTT) (HIT-T15 β-cells [1]; serum deprived medium alone): no significant effect
cell survival (MTT) (HIT-T15 β-cells [1]; [5]): no significant effect
cell survival (MTT) (human pancreatic islets; serum deprived medium alone): significantly increased survival of islet cells
cell survival (MTT) (human pancreatic islets; [6]): had no effect
cell survival (MTT) (INS-1E β-cells; [5]): reduced effect
cell survival (MTT) (INS-1E β-cells; serum-free medium): reduced, although significant, survival action

Glu-His-Gln-Arg (EHQR; listed as Homo sapiens) [UAG (8-11)]
cell survival (MTT) (HIT-T15 β-cells [1]; [5]): significant survival effect only at 100 nM

Glu-His-Gln-Arg-Val (EHQRV; printed: Glu-His-Gln-Arg-Val) [UAG (8-12)]
cytokine-induced apoptosis (HIT-T15 β-cells [2]): some protective effect only at 100 nM

Gly-Pro-Glu-His-Gln-Arg-Val-Gln-NH2 (GPEHQRVQ-NH2; listed as Homo sapiens) [Gly 6-UAG (6-13)]
cell survival (MTT) (HIT-T15 β-cells [1]; [5]): best effect

Gly-Ser-Ser-Phe-Leu (GSSFL; listed as Homo sapiens) [UAG (1-5)]
cell survival (MTT) (HIT-T15 β-cells [1]; [5]): slightly increased cell survival
cell survival (MTT) (human pancreatic islets; serum deprived medium alone): little, although significant survival action at 10 nM
cell survival (MTT) (human pancreatic islets; [6]): no cell protection
cell survival (MTT) (INS-1E β-cells; [5]): reduced effect
cell survival (MTT) (INS-1E β-cells; serum-free medium): reduced, although significant, survival action

His-Gln-Arg [UAG (9-11)]
cell survival (MTT) (HIT-T15 β-cells [1]; [5]): no significant effect at both concentrations tested

His-Gln-Arg-Val (HQRV; listed as Homo sapiens) [UAG (9-12)]
cell survival (MTT) (HIT-T15 β-cells [1]; [5]): significantly increased cell survival at both the concentrations tested

UAG (1-13): UAG fragment named only in b93 as binding to the UAG receptor; no sequence listed (GSSFLSPEHQRVQ)
binding to the UAG receptor [3]: recognized and bound to the UAG receptor
binding to the UAG receptor [4]: recognized and bound to the UAG receptor
